Measured values taken from patent US20250114313A1, “OLIGO-BENZAMIDE ANALOGS AND THEIR USE IN CANCER TREATMENT” (BOARD OF REGENTS, THE UNIVERSITY OF TEXAS SYSTEM, priority 2022, published 2025).

What was measured:
[1] = system: MDA-MB-231 cells with LIPA KO; assay: CellTiter-Glo response of MDA-MB-231 knockout clones; assay type: cell-based, Human
Procedure: Cell viability assays: Cells were seeded in 96-well plates (2×10^3 cells/well) one day before the treatment. Cells were treated with varying concentrations of ERX-41 or ERX-11 analogs for 3-6 days. Then effects of ERX-41 or ERX-11 analogs on cell viability were measured in triplicate or sextuplicate with multiple biological replicates using the WST-1 (Promega), MTT as previously described^33 or CellTiter-Glo 2.0 (Promega) assays.
CRISPR Screen: Human Brunello CRISPR knockout pooled library was purchased from Addgene (Addgene #73178) (via David Root and John Doench). The library containing lentivirus was transduced into cells in biological replicates or triplicates at a multiplicity of infection (MOI) of ˜0.5 and a minimum of 500× coverage. Two days later after transduction, uninfected cells were removed with puromycin selection. The library containing cells was treated with vehicle or ERX-41 for 2 weeks. Genomic DNA was extracted from same number of cells. The sgRNA cassette retrieved by PCR, followed by Next Generation Sequencing (NGS). NGS data was analyzed by MAGeCK (Li et al., Genome Biology, 2014 PMID: 25476604).
Lentiviral constructs cloning: LentiCRISPRv2 vector was used for CRSPR KO experiments. sgRNAs, which were chosen from human CRISPR knockout pooled library, were cloned into lentiCRISPRv2 vector^34. […]

[2] = system: TNBC cells (MDA-MB-231); assay: Live cell imaging with SYTOX Green, cell death in TNBC cells; assay type: cell-based, Human; settings: within 30 hours of treatment; control <1%
Procedure: (§1) Live cell imaging: Live cell images were acquired by Lionheart FX automated microscope (BioTek). Cells were plated one day before the experiment. For cell death assay, 0.2 μM SYTOX Green was added into the plate 15 min before the experiment.

[3] = system: D2A1 xenografts; assay: D2A1 syngeneic tumor model; assay type: in vivo, BALB/c mice; settings: 10 mg/kg daily
Procedure: (§2) Animal Studies: All animal experiments were performed using UTHSA and UTSW IACUC approved protocols. For cell based xenograft tumor assays, TNBC cells (2×10^5-2×10^6) were mixed with an equal volume of matrigel and implanted in the mammary fat pads of 6-week-old female athymic nude mice as described^33. BALB/c mice were used for D2A1 syngeneic model. Once tumors reached measurable size, mice were divided into control (vehicle) and ERX-41 (10 mg/kg/oral) treatment groups. Mice bearing TNBC PDX tumors were purchased from Jackson laboratory (TM00089; TM00096; TM00098). TNBC PDX line UTPDX0001 establishment was earlier described^38. WHIM-20 ER+PDX model was purchased from Horizon Labs. OCa-PDX-38 was received from UTHSA ObGyn tissue procurement core. When tumors reached ˜750 mm^3 they were dissected into 2 mm^3 pieces and implanted into the mammary fat pads of 6 weeks old female SCID or NSG mice. When the tumor volume reached ˜200 mm^3, mice were randomized for treatment. The mice were monitored daily for adverse toxic effects and tumor volume was measured every 3-4 days using calipers. For establishing ES2 tumors, ES2/GFP/LUC cells were injected i.p. and tumors were measured twice a week using Xenogen in vivo imaging system. […] The mice were monitored daily for adverse toxic effects. […] The sections were scored by two independent evaluators blinded to the patient's clinical status.

[4] = system: SUM-159 cells with LIPA KO; assay: UPR induction and protein synthesis in SUM-159 cells with LIPA KO (RNA-seq, RT-qPCR, western); assay type: cell-based, Human; settings: 1 μM, 4 h
Procedure: Western blotting: Whole cell lysates from breast cancer cells were prepared with 2× sample buffer (60 mM Tris-HCl, pH 6.8, 2% sodium dodecyl sulfate, 10% glycerol), and before loading mixed with loading buffer (5% 2-mercaptoethanol, 0.1% bromophenol blue) and boiled for denaturation, as previously described.^33 Proteins were separated by SDS-PAGE and subjected to Western analysis using antibodies. To detect nascent translated proteins, puromycin (final concentration 10 μg/mL) was added into cell plates 30 minutes before harvesting cells. Then samples were subjected to the Western blotting. Nascent proteins were detected by anti-puromycin antibody.
Real-time quantitative PCR (RT-qPCR): Total RNA was prepared from breast cancer cells using the RNeasy Mini Kit (Qiagen) according to the manufacturer protocols. Subsequently, total RNAs were reverse transcribed into cDNA using iScript Reverse Transcription Supermix (Bio-rad) and by using SYBR Green on an Illumina Real-Time PCR system.
RNA-sequencing: mRNA-seq sequencing library construction was performed using TruSeq RNA Library Preparation Kit (Illumina) according to the manufacturer's instructions. FASTQ reads from Genomics Core at UTSW were mapped to Human GRCh38 genome using HiSAT2 (RRID:SCR_015530). Differential expression analysis is performed using DEseq2 (RRID:SCR_015687). Abundances of transcripts are calculated using ballgown (Frazee et al. 2014). The values of Fragments Per Kilobase of transcript per Million mapped reads (FPKM) were used for Gene Set Enrichment Analysis (GSEA). GSEA was performed by using the GSEA software (RRID:SCR_005724) and C5 ontology gene sets (14765 gene sets in total). mRNA-seq data from this study are available from NCBI GEO under accession #GSE168800.

[5] = system: ovarian cancer cell line xenograft (ES2); assay: Ovarian cancer cell line xenograft ES2; assay type: in vivo, mice; settings: 10 mg/kg/day i.p.
Procedure: as §2

[6] = system: SUM-159 clones with LIPA KO; assay: Live cell imaging with SYTOX Green, SUM-159 LIPA KO; assay type: cell-based, Human; settings: 1 μM
Procedure: as §1

## CC(C)COc1cc(C(=O)Nc2ccc(C(=O)N[C@H]3CC[C@H](C)CC3)cc2OCC(C)C)ccc1NC(=O)c1ccc([N+](=O)[O-])c(OCCO)c1 [ERX-41]
[1]
  effect of LIPA knockout on cytotoxic response: abrogate the cytotoxic response to ERX-41
[2]
  cells dead: > 90%
[3]
  growth of D2A1 xenografts: significantly reduce the growth
[4]
  genes altered by RNA sequencing in LIPA KO cells: no genes significantly altered
[5]
  activity against ES2 xenograft: has activity against
[6]
  cell death in SUM-159 with LIPA KO: dramatic decrease in cell death
